In PubChem BioAssay AID206 (DTP/NCI, 2004):
Where “and” joins values, the source holds several entries; their conditions need not be identical. Identical values can stand only once. Results filed as inconclusive are left out.

System: nude mice, HT29 intrarenal xenograft, tumor weight T/C
Experiment: NCI In Vivo Anticancer Drug Screen. Data for tumor model HT29;CX-1 Human Adenocarcinoma (MER+) (intrarenal inoculation) in NU/NU Swiss (nude) mice
Details: endpoint: mean tumor weight change, higher = larger tumour
Outline: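 Endpoint measured as tumor size or survival; ratio reported is treated group over vehicle controls.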

[1] = dose: 50.0 mg/kg/injection, schedule: Q01DX010 (sc), vehicle: saline
[2] = dose: 12.5 mg/kg/injection, schedule: Q01DX010 (sc), vehicle: Klucel (hydroxypropylcellulose) (HPC)
[3] = dose: 25.0 mg/kg/injection, schedule: Q01DX010 (sc), vehicle: Klucel (hydroxypropylcellulose) (HPC)
[4] = dose: 300.0 mg/kg/injection, schedule: Q04DX004 (sc), vehicle: saline with Tween-80
[5] = dose: 37.5 mg/kg/injection, schedule: Q04DX004 (sc), vehicle: Klucel (hydroxypropylcellulose) (HPC)
[6] = dose: 75.0 mg/kg/injection, schedule: Q04DX004 (sc), vehicle: Klucel (hydroxypropylcellulose) (HPC)
[7] = dose: 25.0 mg/kg/injection, schedule: Q04DX004 (sc), vehicle: saline
[8] = dose: 75.0 mg/kg/injection, schedule: Q04DX004 (sc), vehicle: saline with Tween-80
[9] = dose: 150.0 mg/kg/injection, schedule: Q04DX004 (sc), vehicle: saline with Tween-80
[10] = dose: 600.0 mg/kg/injection, schedule: Q04DX004 (sc), vehicle: saline with Tween-80

Structure (SMILES): CNNCc1ccc(C(=O)NC(C)C)cc1
- T/C [1]: 194 % of control
- T/C (dose: 200.0 mg/kg/injection, schedule: Q01DX010 (sc), vehicle: saline): 63 % of control and 77 % of control

Structure (SMILES): O=C(CCBr)N1CCN(C(=O)CCBr)CC1
- T/C [2]: 71 % of control
- T/C [3]: 64 % of control

Structure (SMILES): COc1ccc(S(=O)(=O)N=N/C=C2\C=CC=CN2O)cc1OC
- T/C (dose: 18.75 mg/kg/injection, schedule: Q04DX004 (sc), vehicle: saline with Tween-80): 61 % of control
- T/C (dose: 37.5 mg/kg/injection, schedule: Q04DX004 (sc), vehicle: saline with Tween-80): 54 % of control
- T/C [4]: 55 % of control

Structure (SMILES): CCCC(=O)O.CCCC(=O)O.CCCC(=O)O.CCCC(=O)O.[Rh].[Rh]
- T/C (dose: 0.5 mg/kg/injection, schedule: Q04DX004 (sc), vehicle: suspension in saline): 99 % of control
- T/C (dose: 1.0 mg/kg/injection, schedule: Q04DX004 (sc), vehicle: suspension in saline): 75 % of control
- T/C (dose: 2.0 mg/kg/injection, schedule: Q04DX004 (sc), vehicle: suspension in saline): 97 % of control
- T/C (dose: 4.0 mg/kg/injection, schedule: Q04DX004 (sc), vehicle: suspension in saline): 155 % of control

Structure (SMILES): O=c1[nH]c(=O)n(C2CC(O)C(CO)O2)cc1F (stereo not given)
- T/C (dose: 25.0 mg/kg/injection, schedule: Q01DX010 (sc), vehicle: water): 65 % of control
- T/C (dose: 50.0 mg/kg/injection, schedule: Q01DX010 (sc), vehicle: water): 75 % of control

Structure (SMILES): COc1ccc(C(N)=O)cc1N=NN(C)C
- T/C (dose: 18.75 mg/kg/injection, schedule: Q04DX004 (sc), vehicle: Klucel (hydroxypropylcellulose) (HPC)): 100 % of control
- T/C [5]: 31 % of control and 55 % of control
- T/C [6]: 45 % of control and 52 % of control and 70 % of control

Structure (SMILES): COc1cccc2c1C(=O)c1c(O)c3c(c(O)c1C2=O)C[C@@](O)(/C(CO)=N/NC(=O)c1ccc(Cl)c(Cl)c1)C[C@@H]3OC1CC(N)C(O)C(C)O1 (stereo not given in full)
- T/C (dose: 4.0 mg/kg/injection, schedule: Q01DX010 (sc), vehicle: water): 226 % of control
- T/C (dose: 8.0 mg/kg/injection, schedule: Q01DX010 (sc), vehicle: water): 88 % of control
- T/C (dose: 20.0 mg/kg/injection, schedule: Q04DX004 (sc), vehicle: water): 113 % of control
- T/C (dose: 40.0 mg/kg/injection, schedule: Q04DX004 (sc), vehicle: water): 59 % of control

Structure (SMILES): CCc1ncnc2cc(OCC3CO3)c(OC)cc12 (stereo not given)
- T/C [7]: 69 % of control
- T/C (dose: 50.0 mg/kg/injection, schedule: Q04DX004 (sc), vehicle: saline): 36 % of control
- T/C (dose: 100.0 mg/kg/injection, schedule: Q04DX004 (sc), vehicle: saline): 80 % of control

Structure (SMILES): O=C1c2cccc3cc([N+](=O)[O-])cc(c23)C(=O)N1CCN1CCCC1
- T/C (dose: 18.0 mg/kg/injection, schedule: Q04DX004 (sc), vehicle: saline with Tween-80): 110 % of control
- T/C (dose: 36.0 mg/kg/injection, schedule: Q04DX004 (sc), vehicle: saline with Tween-80): 115 % of control

Structure (SMILES): O=C1C=CC(=O)N1c1ccc(Cl)cc1
- T/C [5]: 70 % of control
- T/C [6]: 70 % of control
- T/C (dose: 150.0 mg/kg/injection, schedule: Q04DX004 (sc), vehicle: Klucel (hydroxypropylcellulose) (HPC)): 106 % of control

Structure (SMILES): Nc1nc2c(C(=O)N3CCCC3)nnn2c2ccccc12
- T/C [8]: 157 % of control

Structure (SMILES): CN(Cc1cnc2nc(N)nc(N)c2n1)c1c(Cl)cc(C(=O)NC(CCC(=O)O)C(=O)O)cc1Cl (stereo not given)
- T/C [2]: 166 % of control
- T/C [3]: 86 % of control

Structure (SMILES): C[CH2][Ge]1([CH2]C)[CH2]CC2(CCN(CCCN(C)C)C2)C[CH2]1
- T/C [1]: 99 % of control

Structure (SMILES): O=C(O)C(CSC(c1ccccc1)(c1ccccc1)c1ccccc1)N=Cc1cccs1 (stereo not given)
- T/C (dose: 200.0 mg/kg/injection, schedule: Q04DX004 (sc), vehicle: suspension in saline): 12 % of control

Structure (SMILES): CO[C@H]1C[C@](C)(O)Cc2cc3c(c(O)c21)C(=O)c1c(O)cc2c(c1C3=O)O[C@@H]1O[C@@]2(C)[C@H](O)[C@@H](N(C)C)[C@@H]1O
- T/C (dose: 50.0 mg/kg/injection, schedule: Q04DX004 (sc), vehicle: other): 99 % of control

Structure (SMILES): C=C1CC2(OC1=O)C(=O)N(C)c1ccc(I)cc12 (stereo not given)
- T/C (dose: 37.5 mg/kg/injection, schedule: Q04DX004 (sc), vehicle: suspension in saline): 80 % of control
- T/C (dose: 75.0 mg/kg/injection, schedule: Q04DX004 (sc), vehicle: suspension in saline): 71 % of control
- T/C (dose: 150.0 mg/kg/injection, schedule: Q04DX004 (sc), vehicle: suspension in saline): 81 % of control

Structure (SMILES): COc1ccc(C(=O)C(CN(C)C)CN(C)C)cc1
- T/C (dose: 12.5 mg/kg/injection, schedule: Q04DX004 (sc), vehicle: saline): 100 % of control
- T/C [7]: 38 % of control

Structure (SMILES): OCCOCC(F)(F)F
- T/C (dose: 300.0 mg/kg/injection, schedule: Q04DX004 (sc), vehicle: saline): 67 % of control
- T/C (dose: 600.0 mg/kg/injection, schedule: Q04DX004 (sc), vehicle: saline): 91 % of control
- T/C (dose: 1200.0 mg/kg/injection, schedule: Q04DX004 (sc), vehicle: saline): 100 % of control
- T/C (dose: 2400.0 mg/kg/injection, schedule: Q04DX004 (sc), vehicle: saline): 58 % of control

Structure (SMILES): COc1c(O)c2c(c3cc(C(=O)N4CCc5c4c(O)c(OC)c4[nH]c(C(=O)N6CC7CC78C6=CC(=O)c6[nH]cc(C)c68)cc54)[nH]c13)CCN2C(N)=O (stereo not given)
- T/C (dose: 6.25 micrograms/kg/injection, schedule: Q01DX010 (sc), vehicle: DMSO): 96 % of control
- T/C (dose: 12.5 micrograms/kg/injection, schedule: Q01DX010 (sc), vehicle: DMSO): 108 % of control
- T/C (dose: 25.0 micrograms/kg/injection, schedule: Q01DX010 (sc), vehicle: DMSO): 65 % of control
- T/C (dose: 50.0 micrograms/kg/injection, schedule: Q01DX010 (sc), vehicle: DMSO): 89 % of control

Structure (SMILES): CC1=CC2c3cccc4[nH]cc(c34)CC2N(C)C1 (stereo not given)
- T/C (dose: 12.5 mg/kg/injection, schedule: Q04DX004 (sc), vehicle: suspension in saline): 85 % of control
- T/C (dose: 25.0 mg/kg/injection, schedule: Q04DX004 (sc), vehicle: suspension in saline): 61 % of control
- T/C (dose: 50.0 mg/kg/injection, schedule: Q04DX004 (sc), vehicle: suspension in saline): 90 % of control

Structure (SMILES): C1CC[N-]CC1.[Cl][Pt+2][Cl].[NH-]C1CC1
- T/C (dose: 50.0 mg/kg/injection, schedule: Q04DX004 (sc), vehicle: water): 51 % of control and 54 % of control
- T/C (dose: 100.0 mg/kg/injection, schedule: Q04DX004 (sc), vehicle: water): 17 % of control

Structure (SMILES): C[C@]12C=CC(=O)C=C1CC[C@@H]1[C@@H]2[C@@H](O)C[C@@]2(C)[C@H]1CC[C@]2(O)C(=O)CO
- T/C [2]: 79 % of control
- T/C [3]: 112 % of control
- T/C (dose: 50.0 mg/kg/injection, schedule: Q01DX010 (sc), vehicle: Klucel (hydroxypropylcellulose) (HPC)): 66 % of control
- T/C (dose: 100.0 mg/kg/injection, schedule: Q01DX010 (sc), vehicle: Klucel (hydroxypropylcellulose) (HPC)): 83 % of control

Structure (SMILES): COc1cc2cc(c1Cl)N(C)C(=O)CC(OC(=O)CC(C)C)C1(C)OC1C(C)C1CC(O)(NC(=O)O1)C(OC)/C=C/C=C(C)C2 (stereo not given)
- T/C (dose: 125.0 micrograms/kg/injection, schedule: Q04DX004 (sc), vehicle: saline + alcohol): 87 % of control and 99 % of control
- T/C (dose: 500.0 micrograms/kg/injection, schedule: Q04DX004 (sc), vehicle: saline + alcohol): 60 % of control

Structure (SMILES): CCCN1COC(OCC)C(C)(C)C1 (stereo not given)
- T/C [9]: 114 % of control
- T/C [4]: 79 % of control
- T/C [10]: 96 % of control

Structure (SMILES): Nc1nc(N)c2c(ccc3c2ccn3Cc2cccc([N+](=O)[O-])c2)n1
- T/C (dose: 6.25 mg/kg/injection, schedule: Q04DX004 (sc), vehicle: saline with Tween-80): 97 % of control
- T/C (dose: 12.5 mg/kg/injection, schedule: Q04DX004 (sc), vehicle: saline with Tween-80): 78 % of control
- T/C (dose: 25.0 mg/kg/injection, schedule: Q04DX004 (sc), vehicle: saline with Tween-80): 57 % of control
- T/C (dose: 50.0 mg/kg/injection, schedule: Q04DX004 (sc), vehicle: saline with Tween-80): 77 % of control
- T/C [8]: 157 % of control
- T/C [9]: 54 % of control

Structure (SMILES): CCCCCCCCCCCCSC1=C(Cl)C(=O)C(OC)=C(OC)C1=O
- T/C [8]: 76 % of control
- T/C [9]: 36 % of control
- T/C [4]: 25 % of control

Structure (SMILES): COc1ccc(-c2csc(=[N+]3CCCCC3)s2)cc1
- T/C (dose: 6.25 mg/kg/injection, schedule: Q04DX004 (sc), vehicle: water): 227 % of control
- T/C (dose: 12.5 mg/kg/injection, schedule: Q04DX004 (sc), vehicle: water): 118 % of control

Structure (SMILES): CC(=O)Nc1ccc(O)c(O)c1
- T/C [9]: 257 % of control
- T/C [4]: 56 % of control
- T/C [10]: 231 % of control
- T/C (dose: 2400.0 mg/kg/injection, schedule: Q04DX004 (sc), vehicle: saline with Tween-80): 110 % of control

Structure (SMILES): CO[C@@H]1[C@H](O)CC[C@]2(CO2)[C@H]1[C@@]1(C)O[C@@H]1CC=C(C)C
- T/C [8]: 108 % of control
- T/C [9]: 179 % of control
- T/C [4]: 108 % of control
- T/C [10]: 110 % of control
